The source made the active and inactive calls.
Assays:
[1] = Luminescence Cell-Based Dose Confirmation HTS to Identify Inhibitors of Platelet Dense Granule Release. [Related pubchem assays: 1663 (Primary HTS), 1678 (Summary of Project)]; type: functional
[2] = target: Luciferin 4-monooxygenase (Photinus pyralis, UniProt P08659); assay: firefly luciferase enzyme inhibitors, dose response, biochemical, luminescence (AID 1891)
[3] = growth suppression of beta-catenin-knockout colon cells, dose response, cell-based, HCT116, human colon tumor (AID 1045); type: functional;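 also: HCT116 colon tumor cells with beta catenin knocked out; cells exposed to compound for 60 hours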
[4] = growth suppression of PTEN-null colon cells, dose response, cell-based, HCT116 PTEN knockout (AID 1047); type: functional;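 also: HCT116 colon tumor cells with PTEN knocked out; cells exposed to compound for 60 hours before readout; potency for loss of cell viability measured by luminescence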
[5] = Luminescence Cell-Based Dose Retest to Confirm Inhibitors of Cancer Stem Cells. [Related pubchem assays (depositor defined):AID2717, AID2721]; type: functional; settings: Homo sapiens
[6] = target: T1, Polyadenylate-binding protein 1 (Homo sapiens, UniProt P11940); assay: PABP1 MLLE–PAM2 binding inhibitor potency, dose response, biochemical, fluorescence polarization, FITC-PAM2 peptide (AID 602259); type: functional; settings: read-out: IC50_Mean
[7] = target: T1, Polyadenylate-binding protein 1; assay: PABP1 MLLE–PAM2 interaction inhibitors, dose response, miRNA deadenylation inhibitor project, biochemical, fluorescence polarization, Cy5-PAM2 peptide, secondary (AID 602260); type: functional; settings: read-out: IC50_Mean
[8] = test system: Streptococcus sp. 'group A'; assay: growth inhibition of control SK(-) GAS strain, dose response, counter-screen for streptokinase expression inhibitor project, luminescence, kanamycin, BacTiterGlo, confirmation (AID 1900); type: functional, organism-based
[9] = test system: Streptococcus; assay: Group A Streptococcus viability loss, dose response, counter-screen for streptokinase expression inhibitor project, luminescence, BacTiterGlo (AID 1915); type: functional, organism-based;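 also: potency for reduction of bacterial viability or growth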
[10] = target: T2, Streptokinase A (Streptococcus pyogenes serotype M1, UniProt P10520); assay: S. pyogenes streptokinase expression inhibitors, potency, dose response, plasminogen activation absorbance, OD405 (AID 1914); type: functional, Streptococcus pyogenes M1 GAS;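 also: secreted streptokinase activity via plasminogen activation per viability signal from cell pellet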
T2 sequence (P10520 whole entry): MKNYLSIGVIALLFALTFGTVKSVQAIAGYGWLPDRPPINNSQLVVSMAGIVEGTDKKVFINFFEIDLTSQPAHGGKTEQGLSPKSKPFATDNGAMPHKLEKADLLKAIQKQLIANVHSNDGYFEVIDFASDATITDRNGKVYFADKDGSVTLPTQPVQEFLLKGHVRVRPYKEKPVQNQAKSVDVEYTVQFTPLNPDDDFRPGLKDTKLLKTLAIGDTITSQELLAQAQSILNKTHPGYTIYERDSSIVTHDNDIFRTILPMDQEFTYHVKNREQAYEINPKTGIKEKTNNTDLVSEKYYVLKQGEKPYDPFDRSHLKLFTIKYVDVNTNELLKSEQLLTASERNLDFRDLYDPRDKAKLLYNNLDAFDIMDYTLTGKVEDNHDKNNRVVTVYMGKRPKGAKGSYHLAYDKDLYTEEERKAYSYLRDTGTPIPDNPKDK
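For AC50 in this document: cells exposed to compound for roughly 70 hours or longer before luminescence read.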

T1 sequence (P11940 whole entry): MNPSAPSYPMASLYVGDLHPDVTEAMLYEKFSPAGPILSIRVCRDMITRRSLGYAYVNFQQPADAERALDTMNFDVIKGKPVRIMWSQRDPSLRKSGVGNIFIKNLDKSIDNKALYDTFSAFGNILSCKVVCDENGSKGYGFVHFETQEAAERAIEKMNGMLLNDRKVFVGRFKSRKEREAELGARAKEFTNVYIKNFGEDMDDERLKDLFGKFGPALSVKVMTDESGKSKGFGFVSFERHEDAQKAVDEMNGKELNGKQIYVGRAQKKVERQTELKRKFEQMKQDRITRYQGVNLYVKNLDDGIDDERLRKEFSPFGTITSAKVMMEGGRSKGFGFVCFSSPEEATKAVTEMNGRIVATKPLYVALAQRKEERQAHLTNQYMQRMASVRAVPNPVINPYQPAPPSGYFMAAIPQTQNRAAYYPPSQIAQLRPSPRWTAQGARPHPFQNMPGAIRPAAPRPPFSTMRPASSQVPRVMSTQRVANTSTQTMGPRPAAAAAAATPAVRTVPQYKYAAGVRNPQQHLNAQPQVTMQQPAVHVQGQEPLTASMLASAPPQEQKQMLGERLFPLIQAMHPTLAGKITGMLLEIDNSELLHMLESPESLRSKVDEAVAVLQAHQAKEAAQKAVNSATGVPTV
Sequence of Luciferin 4-monooxygenase (P08659 whole entry): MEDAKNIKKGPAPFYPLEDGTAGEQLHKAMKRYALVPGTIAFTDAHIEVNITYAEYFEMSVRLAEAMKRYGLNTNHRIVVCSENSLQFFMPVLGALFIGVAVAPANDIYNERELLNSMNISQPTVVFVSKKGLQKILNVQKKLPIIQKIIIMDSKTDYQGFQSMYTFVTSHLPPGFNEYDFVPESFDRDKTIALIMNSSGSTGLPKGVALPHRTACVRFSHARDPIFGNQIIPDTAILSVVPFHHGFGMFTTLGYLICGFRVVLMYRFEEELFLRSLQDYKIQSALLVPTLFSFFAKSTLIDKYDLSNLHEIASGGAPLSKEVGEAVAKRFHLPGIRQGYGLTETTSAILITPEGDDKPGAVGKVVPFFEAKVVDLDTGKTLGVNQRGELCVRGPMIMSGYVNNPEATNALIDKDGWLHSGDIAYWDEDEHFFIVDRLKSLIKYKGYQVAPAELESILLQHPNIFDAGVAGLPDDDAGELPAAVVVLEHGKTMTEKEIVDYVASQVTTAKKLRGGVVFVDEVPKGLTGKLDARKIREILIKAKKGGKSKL

With `O=C1NC(=S)N=C1c1c(O)[nH]c2ccccc12` as the compound, how does the EC50 [1] read?
The EC50 was > 112 µM (not active).

What about the EC50 [2] of the same compound?
Its EC50 is > 112 µM (not active).

What does the source list for `CCN(CC)CCNC(=O)c1ccc2c(=O)n(C3CCCC3)c(=S)[nH]c2c1`?
EC50 [3]: 14.1 µM (active); EC50 [4]: 17.2 µM (active)

For `CCOc1ccc(CN2CCN(CC(O)Cn3c4ccccc4c4ccccc43)CC2)cc1` (configuration not stated), which EC50 [3] is on record?
The EC50 was 9.01 µM (active).

And the EC50 [4]?
Its EC50 is 9.94 µM (active).

For `CCc1cccc(NC(=O)CN(C)S(=O)(=O)c2c[nH]cn2)c1`, which EC50 [1] is on record?
Its EC50 is > 112 µM (not active).

And the EC50 [2]?
The EC50 was > 112 µM (not active).

With `COc1ccc(N/C=C/C(=O)c2ccccc2)cc1` as the compound, how does the EC50 [1] read?
The EC50 was < 0.701 µM (active).

And the EC50 [2]?
The EC50 was 0.863 µM (active).

For `O=C(Cc1ccccc1)Nc1cccc(NC(=O)c2ccccc2)c1`, which AC50 [5] is on record?
Its AC50 is 7.49 µM (active).

What does the source list for `Cn1cc([N+](=O)[O-])c(C(=O)Nc2ccc(Br)cn2)n1`?
EC50 [3]: 4.91 µM (active); EC50 [4]: 5.55 µM (active)

With `COC(=O)c1ccc(/C=C/c2c(-c3ccc(OC)cc3)sc3ccccc23)cc1` as the compound, how does the AC50 [5] read?
Its AC50 is 3.79 µM (active).

With `COc1ccc2c(c1OC)C(=O)N1C2SC[C@H]1C(=O)NC1CCCC1` (some centres not stated) as the compound, how does the IC50 [6] read?
Its IC50 is > 66 µM (inactive).

And the IC50 [7]?
Its IC50 is > 66 µM (inactive).

Which EC50 [1] does the source give for `COc1ccc(CNC(=O)c2ccccc2NC(=O)C2=CSCCO2)c(OC)c1` here?
Its EC50 is 15.7 µM (active).

What about the EC50 [2] of the same compound?
The EC50 was > 112 µM (not active).

Which EC50 [3] does the source give for `CCCC(=O)NC(Nc1cc(C(F)(F)F)ccc1Cl)C(Cl)(Cl)Cl` (configuration not stated) here?
Its EC50 is 33.6 µM (active).

And the EC50 [4]?
Its EC50 is 25.5 µM (active).

Which results are given for `Cc1cccc(-c2oc3ccccc3c2-c2ccc3c(c2)OCO3)c1`?
EC50 [8]: 2.25 µM (active); EC50 [9]: > 150 µM (not active); EC50 [10]: 5.16 µM (active)

For `CC(=O)c1cccc(S(=O)(=O)N2CCN(CCOc3ccccc3)CC2)c1`, which IC50 [6] is on record?
Its IC50 is > 66 µM (inactive).

What about the IC50 [7] of the same compound?
The IC50 was > 66 µM (inactive).

With `CC(=O)Nc1ccc(-c2csc(NC(=O)Cc3cccc(F)c3)n2)cc1` as the compound, how does the AC50 [5] read?
Its AC50 is 1.29 µM (active).

With `CCc1noc(C)c1C(=O)OCC(=O)NC(=O)c1ccccc1` as the compound, how does the EC50 [8] read?
Its EC50 is > 150 µM (not active).

What about the EC50 [9] of the same compound?
The EC50 was > 150 µM (not active).

And the EC50 [10]?
The EC50 was > 150 µM (not active).

For `O=C(NCCc1c[nH]c2ccccc12)C(=O)c1c[nH]c2ccccc12`, which AC50 [5] is on record?
The AC50 was 1.48 µM (active).

With `CCOc1ccccc1NC(=O)CSc1nnc(-c2cccnc2)o1` as the compound, how does the IC50 [6] read?
Its IC50 is > 66 µM (inactive).

What about the IC50 [7] of the same compound?
The IC50 was > 66 µM (inactive).

Which results are given for `CC1=NC2=C(C(=O)CCC2)C(c2cc3c(cc2Br)OCO3)/C1=C(\O)OCCOC(C)C` (configuration not stated)?
IC50 [6]: > 66 µM (inactive); IC50 [7]: > 66 µM (inactive)

Which results are given for `COc1ccc(Cn2c(-c3ccco3)nc3oc4ccccc4c(=O)c3c2=O)cc1`?
EC50 [8]: 12.1 µM (active); EC50 [9]: 86.5 µM (active); EC50 [10]: > 150 µM (not active)

From ChEMBL document CHEMBL1201862, “PubChem BioAssay data set” (2004)
